{"source": "PubChem BioAssay AID2060488", "about": "(Molecular Pharmacology Branch, DTP, NCI, 2025);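 further: spheroids exposed to the agents for seven days before readout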;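 on viability, T/C: percent viability relative to DMSO vehicle control wells taken as 100%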", "test_system": "966289-007-R4-J1-PDC complex spheroid viability", "test": "Anticancer human tumor 966289-007-R4-J1-PDC patient-derived pancreatic adenocarcinoma cell line growth inhibition [GQUAD]", "conditions": "for IC50: curve of first compound; for viability, T/C: stronger effect = lower value", "in_short": "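Tumor cells were grown as complex spheroids with HUVEC endothelial cells and mesenchymal stem cells as stroma. G-quadruplex stabilizers were combined with targeted agents over half-log dilutions from near the clinical Cmax, or from 10 microM.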", "key": {"[1]": {"conditions": "second compound 0.0316 µM, first compound 0.0316 µM"}, "[2]": {"conditions": "second compound 0.0316 µM, first compound 0.316 µM"}, "[3]": {"conditions": "second compound 0.1 µM, first compound 0.0316 µM"}, "[4]": {"conditions": "second compound 0.1 µM, first compound 0.316 µM"}, "[5]": {"conditions": "second compound 0.316 µM, first compound 0.0316 µM"}, "[6]": {"conditions": "second compound 0.316 µM, first compound 0.316 µM"}, "[7]": {"conditions": "second compound 1 µM, first compound 0.0316 µM"}, "[8]": {"conditions": "second compound 1 µM, first compound 0.316 µM"}, "[9]": {"conditions": "second compound 3.16 µM, first compound 0.0316 µM"}, "[10]": {"conditions": "second compound 3.16 µM, first compound 0.316 µM"}, "[11]": {"conditions": "second compound 10 µM, first compound 0.0316 µM"}, "[12]": {"conditions": "second compound 10 µM, first compound 0.316 µM"}}}
{"smiles": "C#Cc1c(F)ccc2cc(O)cc(-c3ncc4c(N5CC6CCC(C5)N6)nc(OCC56CCCN5CC(F)C6)nc4c3F)c12", "note": "(centres undefined) + CN(C)c1ccc(Nc2c3ccc(NC(=O)CCN4CCCC4)cc3nc3cc(NC(=O)CCN4CCCC4)ccc23)cc1", "values": [{"measurement": "IC50", "setting": "second compound 0.0316 µM", "result": "> 10000", "unit": "nM"}, {"measurement": "IC50", "setting": "second compound 0.1 µM", "result": "> 10000", "unit": "nM"}, {"measurement": "IC50", "setting": "second compound 0.316 µM", "result": "> 10000", "unit": "nM"}, {"measurement": "IC50", "setting": "second compound 1 µM", "result": "> 10000", "unit": "nM"}, {"measurement": "IC50", "setting": "second compound 3.16 µM", "result": "> 10000", "unit": "nM"}, {"measurement": "IC50", "setting": "second compound 10 µM", "result": 1790, "unit": "nM"}, {"measurement": "viability, T/C", "setting": "[1]", "result": 103, "unit": "%"}, {"measurement": "viability, T/C", "setting": "second compound 0.0316 µM, first compound 0.1 µM", "result": 88.4, "unit": "%"}, {"measurement": "viability, T/C", "setting": "[2]", "result": 98.5, "unit": "%"}, {"measurement": "viability, T/C", "setting": "second compound 0.0316 µM, first compound 1 µM", "result": 86.7, "unit": "%"}, {"measurement": "viability, T/C", "setting": "second compound 0.0316 µM, first compound 3.16 µM", "result": 95.9, "unit": "%"}, {"measurement": "viability, T/C", "setting": "second compound 0.0316 µM, first compound 10 µM", "result": 93.5, "unit": "%"}, {"measurement": "viability, T/C", "setting": "[3]", "result": 96.8, "unit": "%"}, {"measurement": "viability, T/C", "setting": "second compound 0.1 µM, first compound 0.1 µM", "result": 84.4, "unit": "%"}, {"measurement": "viability, T/C", "setting": "[4]", "result": 94.5, "unit": "%"}, {"measurement": "viability, T/C", "setting": "second compound 0.1 µM, first compound 1 µM", "result": 89, "unit": "%"}, {"measurement": "viability, T/C", "setting": "second compound 0.1 µM, first compound 3.16 µM", "result": 90.7, "unit": "%"}, {"measurement": "viability, T/C", "setting": "second compound 0.1 µM, first compound 10 µM", "result": 96, "unit": "%"}, {"measurement": "viability, T/C", "setting": "[5]", "result": 98.2, "unit": "%"}, {"measurement": "viability, T/C", "setting": "second compound 0.316 µM, first compound 0.1 µM", "result": 91.2, "unit": "%"}, {"measurement": "viability, T/C", "setting": "[6]", "result": 105, "unit": "%"}, {"measurement": "viability, T/C", "setting": "second compound 0.316 µM, first compound 1 µM", "result": 96.3, "unit": "%"}, {"measurement": "viability, T/C", "setting": "second compound 0.316 µM, first compound 3.16 µM", "result": 95.2, "unit": "%"}, {"measurement": "viability, T/C", "setting": "second compound 0.316 µM, first compound 10 µM", "result": 103, "unit": "%"}, {"measurement": "viability, T/C", "setting": "[7]", "result": 87.9, "unit": "%"}, {"measurement": "viability, T/C", "setting": "second compound 1 µM, first compound 0.1 µM", "result": 89.9, "unit": "%"}, {"measurement": "viability, T/C", "setting": "[8]", "result": 98.8, "unit": "%"}, {"measurement": "viability, T/C", "setting": "second compound 1 µM, first compound 1 µM", "result": 96.8, "unit": "%"}, {"measurement": "viability, T/C", "setting": "second compound 1 µM, first compound 3.16 µM", "result": 95.5, "unit": "%"}, {"measurement": "viability, T/C", "setting": "second compound 1 µM, first compound 10 µM", "result": 102, "unit": "%"}, {"measurement": "viability, T/C", "setting": "[9]", "result": 88.5, "unit": "%"}, {"measurement": "viability, T/C", "setting": "second compound 3.16 µM, first compound 0.1 µM", "result": 91.1, "unit": "%"}, {"measurement": "viability, T/C", "setting": "[10]", "result": 96.8, "unit": "%"}, {"measurement": "viability, T/C", "setting": "second compound 3.16 µM, first compound 1 µM", "result": 99.4, "unit": "%"}, {"measurement": "viability, T/C", "setting": "second compound 3.16 µM, first compound 3.16 µM", "result": 104, "unit": "%"}, {"measurement": "viability, T/C", "setting": "second compound 3.16 µM, first compound 10 µM", "result": 68.7, "unit": "%"}, {"measurement": "viability, T/C", "setting": "[11]", "result": 104, "unit": "%"}, {"measurement": "viability, T/C", "setting": "second compound 10 µM, first compound 0.1 µM", "result": 106, "unit": "%"}, {"measurement": "viability, T/C", "setting": "[12]", "result": 103, "unit": "%"}, {"measurement": "viability, T/C", "setting": "second compound 10 µM, first compound 1 µM", "result": 85, "unit": "%"}, {"measurement": "viability, T/C", "setting": "second compound 10 µM, first compound 3.16 µM", "result": 16.1, "unit": "%"}, {"measurement": "viability, T/C", "setting": "second compound 10 µM, first compound 10 µM", "result": 0.99, "unit": "%"}]}
{"smiles": "CC[C@@]1(O)C(=O)OCc2c1cc1n(c2=O)Cc2cc3c(CN(C)C)c(O)ccc3nc2-1", "note": "+ CN(C)c1ccc(Nc2c3ccc(NC(=O)CCN4CCCC4)cc3nc3cc(NC(=O)CCN4CCCC4)ccc23)cc1", "values": [{"measurement": "IC50", "setting": "second compound 0.0316 µM", "result": 49.8, "unit": "nM"}, {"measurement": "IC50", "setting": "second compound 0.1 µM", "result": 50.3, "unit": "nM"}, {"measurement": "IC50", "setting": "second compound 0.316 µM", "result": 48.5, "unit": "nM"}, {"measurement": "IC50", "setting": "second compound 1 µM", "result": 53.3, "unit": "nM"}, {"measurement": "IC50", "setting": "second compound 3.16 µM", "result": 50.7, "unit": "nM"}, {"measurement": "IC50", "setting": "second compound 10 µM", "result": 24.8, "unit": "nM"}, {"measurement": "viability, T/C", "setting": "second compound 0.0316 µM, first compound 0.000999 µM", "result": 100, "unit": "%"}, {"measurement": "viability, T/C", "setting": "second compound 0.0316 µM, first compound 0.00316 µM", "result": 96.9, "unit": "%"}, {"measurement": "viability, T/C", "setting": "second compound 0.0316 µM, first compound 0.00999 µM", "result": 92.9, "unit": "%"}, {"measurement": "viability, T/C", "setting": "[1]", "result": 82.1, "unit": "%"}, {"measurement": "viability, T/C", "setting": "second compound 0.0316 µM, first compound 0.0999 µM", "result": 0.84, "unit": "%"}, {"measurement": "viability, T/C", "setting": "[2]", "result": 0.56, "unit": "%"}, {"measurement": "viability, T/C", "setting": "second compound 0.1 µM, first compound 0.000999 µM", "result": 102, "unit": "%"}, {"measurement": "viability, T/C", "setting": "second compound 0.1 µM, first compound 0.00316 µM", "result": 98, "unit": "%"}, {"measurement": "viability, T/C", "setting": "second compound 0.1 µM, first compound 0.00999 µM", "result": 103, "unit": "%"}, {"measurement": "viability, T/C", "setting": "[3]", "result": 83.5, "unit": "%"}, {"measurement": "viability, T/C", "setting": "second compound 0.1 µM, first compound 0.0999 µM", "result": 0.82, "unit": "%"}, {"measurement": "viability, T/C", "setting": "[4]", "result": 0.54, "unit": "%"}, {"measurement": "viability, T/C", "setting": "second compound 0.316 µM, first compound 0.000999 µM", "result": 101, "unit": "%"}, {"measurement": "viability, T/C", "setting": "second compound 0.316 µM, first compound 0.00316 µM", "result": 96.1, "unit": "%"}, {"measurement": "viability, T/C", "setting": "second compound 0.316 µM, first compound 0.00999 µM", "result": 107, "unit": "%"}, {"measurement": "viability, T/C", "setting": "[5]", "result": 79, "unit": "%"}, {"measurement": "viability, T/C", "setting": "second compound 0.316 µM, first compound 0.0999 µM", "result": 0.87, "unit": "%"}, {"measurement": "viability, T/C", "setting": "[6]", "result": 0.83, "unit": "%"}, {"measurement": "viability, T/C", "setting": "second compound 1 µM, first compound 0.000999 µM", "result": 92.1, "unit": "%"}, {"measurement": "viability, T/C", "setting": "second compound 1 µM, first compound 0.00316 µM", "result": 96.5, "unit": "%"}, {"measurement": "viability, T/C", "setting": "second compound 1 µM, first compound 0.00999 µM", "result": 102, "unit": "%"}, {"measurement": "viability, T/C", "setting": "[7]", "result": 91, "unit": "%"}, {"measurement": "viability, T/C", "setting": "second compound 1 µM, first compound 0.0999 µM", "result": 0.86, "unit": "%"}, {"measurement": "viability, T/C", "setting": "[8]", "result": 0.61, "unit": "%"}, {"measurement": "viability, T/C", "setting": "second compound 3.16 µM, first compound 0.000999 µM", "result": 96.1, "unit": "%"}, {"measurement": "viability, T/C", "setting": "second compound 3.16 µM, first compound 0.00316 µM", "result": 98.2, "unit": "%"}, {"measurement": "viability, T/C", "setting": "second compound 3.16 µM, first compound 0.00999 µM", "result": 110, "unit": "%"}, {"measurement": "viability, T/C", "setting": "[9]", "result": 84.3, "unit": "%"}, {"measurement": "viability, T/C", "setting": "second compound 3.16 µM, first compound 0.0999 µM", "result": 1.25, "unit": "%"}, {"measurement": "viability, T/C", "setting": "[10]", "result": 0.55, "unit": "%"}, {"measurement": "viability, T/C", "setting": "second compound 10 µM, first compound 0.000999 µM", "result": 104, "unit": "%"}, {"measurement": "viability, T/C", "setting": "second compound 10 µM, first compound 0.00316 µM", "result": 89.2, "unit": "%"}, {"measurement": "viability, T/C", "setting": "second compound 10 µM, first compound 0.00999 µM", "result": 110, "unit": "%"}, {"measurement": "viability, T/C", "setting": "[11]", "result": 36.2, "unit": "%"}, {"measurement": "viability, T/C", "setting": "second compound 10 µM, first compound 0.0999 µM", "result": 0.73, "unit": "%"}, {"measurement": "viability, T/C", "setting": "[12]", "result": 0.68, "unit": "%"}]}
